# From BindingDB's records for doi:10.1021/jm000320t (Gsk, 2001)
# Assays:
# Test in all cases: In Vitro Enzyme Inhibition Assay
# Procathepsin L = Procathepsin L (Homo sapiens, UniProt P07711)
# Method: (§1) Assays were carried out in the presence of variable concentrations of test compound. Reactions were initiated by addition of enzyme to buffered solutions of inhibitor and substrate. Product fluorescence (excitation at 360 nm, emission at 460 nm) was monitored with a fluorescent plate reader.
# Cathepsin S = Cathepsin S (Homo sapiens, UniProt P25774)
# Sequence of Cathepsin S (P25774 whole entry): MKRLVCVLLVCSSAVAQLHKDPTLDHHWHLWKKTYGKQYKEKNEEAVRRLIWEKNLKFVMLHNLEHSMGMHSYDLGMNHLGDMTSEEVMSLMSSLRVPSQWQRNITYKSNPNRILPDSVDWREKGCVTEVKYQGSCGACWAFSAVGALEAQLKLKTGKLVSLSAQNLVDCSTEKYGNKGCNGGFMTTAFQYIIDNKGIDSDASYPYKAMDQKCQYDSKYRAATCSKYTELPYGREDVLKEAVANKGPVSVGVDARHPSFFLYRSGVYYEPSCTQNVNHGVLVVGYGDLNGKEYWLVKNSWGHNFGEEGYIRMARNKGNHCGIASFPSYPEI
# Method: as §1
# Cathepsin K = target: T1, Cathepsin K (Homo sapiens, UniProt P43235); settings: pH 5.5; 22 °C
# T1 sequence (P43235 whole entry): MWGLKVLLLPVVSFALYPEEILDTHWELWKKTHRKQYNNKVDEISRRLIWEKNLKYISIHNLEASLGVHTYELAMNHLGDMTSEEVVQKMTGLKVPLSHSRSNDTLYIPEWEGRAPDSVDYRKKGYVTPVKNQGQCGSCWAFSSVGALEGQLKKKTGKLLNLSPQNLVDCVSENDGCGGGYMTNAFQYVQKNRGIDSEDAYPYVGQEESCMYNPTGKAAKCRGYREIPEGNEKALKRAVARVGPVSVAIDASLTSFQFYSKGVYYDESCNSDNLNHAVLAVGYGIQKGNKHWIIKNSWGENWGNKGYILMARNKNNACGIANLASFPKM
# Method: as §1
# Sequence of Procathepsin L (P07711 whole entry): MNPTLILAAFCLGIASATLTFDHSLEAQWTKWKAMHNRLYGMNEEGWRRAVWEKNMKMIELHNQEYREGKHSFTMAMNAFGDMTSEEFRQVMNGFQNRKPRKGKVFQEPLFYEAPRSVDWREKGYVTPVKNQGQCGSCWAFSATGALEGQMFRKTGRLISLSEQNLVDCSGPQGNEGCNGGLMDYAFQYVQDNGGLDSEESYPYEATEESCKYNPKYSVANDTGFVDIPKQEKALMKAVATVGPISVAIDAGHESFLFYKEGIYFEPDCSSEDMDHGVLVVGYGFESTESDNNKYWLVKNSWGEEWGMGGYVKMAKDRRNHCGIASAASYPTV
smiles,measurement,setting,value
CN[C@@H](CC(C)C)C(=O)N1CC(=O)C(NC(=O)[C@H](CC(C)C)NC(=O)OCc2ccccc2)C1 (stereo partly drawn) [[(2S)-1-{3-[(2S)-2-{[(benzyloxy)carbonyl]amino}-4-methylpentanamido]-4-oxopyrrolidin-1-yl}-4-methyl-1-oxopentan-2-yl](methyl)azanium chloride],Ki,Procathepsin L,0.4 µM
same,Ki,Cathepsin S,0.29 µM
same,Ki,Cathepsin K,0.077 µM
